Experimental data reported in paper PMC11643554, “Synthesis, Cytotoxicity and Antiproliferative Effect of New Pyrrole Hydrazones” (Molecules, 2024).
Values joined by “and” are separate entries in the source; they are usually repeats but may differ in a detail not shown here. Identical values can stand only once. Like-named read-outs stand apart in the source and are kept apart here.

Legend:
SH-4 cells [1] = assay: Annexin V-FITC/PI flow cytometry assay (apoptosis); type: cell-based, human; conditions: SH-4, 48 h; for Early apoptosis (Annexin V+/PI−, Q3) / Late apoptosis (Annexin V+/PI+, Q2) / Live (viable cells, Annexin V−/PI−, Q4) / Necrosis (Annexin V−/PI+, Q1): 1 6 µM, 1A 260 µM, 1B 260 µM, cisplatin 20 µM; for Early apoptosis (Annexin V+/PI−, Q3) / Late apoptosis (Annexin V+/PI+, Q2) / Live (viable cells, Annexin V−/PI−, Q4) / Necrosis (Annexin V−/PI+, Q1) / population fraction of total apoptotic cells: 1C 40 µM, 1D 8 µM
Procedure: Apoptosis was discriminated with the annexin V-FITC/PI test according to the manufacturer’s protocol (SIGMA-ALDRICH APOAF). […] After completion of each drug incubation, cell media that may contain cells in suspension was centrifuged at 350× g for 5 min. Subsequently, the cell monolayers were washed once with PBS, and cells were detached with trypsin and then collected together with a centrifuged pellet. The cells were washed twice with cold PBS and then resuspended in a Binding Buffer (0.1 M Hepes/NaOH (pH 7.4), 1.4 M NaCl, 25 mM CaCl2) at a concentration of 1 × 10^5 cells/mL. The cells were incubated with 5 µL of FITC Annexin V and 10 µL PI for 20 min at RT (25 °C) in the dark. The analysis was performed with BD FACS DIVA software version 7.0 (BD Biosciences, Franklin Lakes, NJ, USA). Data were analyzed as follows: lower left quadrant, viable cells (Annexin V−/PI−); lower right quadrant, early apoptotic cells (Annexin V+/PI−); upper right quadrant, late apoptotic cells (annexin V+/PI+); upper left quadrant, necrotic cells (annexin V−/PI+). Three independent experiments were performed, with two replicates per experiment.

[2] = tested on: human keratinocytes HaCaT; assay: Antiproliferative activity, MTT dye reduction assay, HaCaT; type: cell-based; conditions: non-tumor keratinocytes HaCaT, 72 h, n = 6, read-out: Mean IC50 ± SD, HaCaT
Procedure: (§1) The antiproliferative activity of the studied substances was determined by MTT dye reduction assay. The assay is based on the metabolism of MTT by reductases in the mitochondria to formazan, the concentration of which can be determined photometrically. The measured absorbance is an indicator of cell viability and metabolic activity. Cells were seeded in 96-well cell culture plates (1 × 10^3 cells/well). Followed by incubation at 37 °C, 5% CO2 for 24 h. Followed by incubation for 72 h of the cells with the studied substances in twice increasing concentrations. After washing with PBS, 100 µL/well of MTT solution (0.5 mg/mL) was added. After 3 h of incubation, the 96-well plates were washed with PBS, and 100 µL/well of lysing solution (DMSO/Ethanol = 1/1) was added. Optical density was measured at a wavelength of 540 nm. The antiproliferative activity expressed in % of the negative control was calculated according to the following formula:Antiproliferative activity (%) = (1 − (OD540 (sample)/OD540 (negative control))) × 100
(§2) The IC50 values (a concentration that inhibited 50% cell proliferation) were calculated using non-linear regression analysis (GraphPad Prizm8 Software). The statistical analysis included the application of one-way ANOVA followed by Bonferroni’s post hoc test. p < 0.05 was accepted as the lowest level of statistical significance. All results are presented as mean ± SD.

SH-4 cells [3] = assay: Cell cycle analysis, PI stain, flow cytometry; type: cell-based, human; conditions: SH-4, 48 h; for effect on cell cycle distribution (in words): at IC50 doses; for G2 phase, percentage of cells / S phase, percentage of cells / G0/G1 phase, percentage of cells: 1 6 µM, 1A 260 µM, 1B 260 µM, 1C 40 µM, 1D 8 µM, cisplatin 20 µM; for G2 phase, percentage of cells: control 12.1; for S phase, percentage of cells: control 21.6; for G0/G1 phase, percentage of cells: control 63.6
Procedure: After incubation, cells were washed twice with ice-cold PBS and fixed with ice-cold 70% ethanol at −20 °C overnight. The cells were treated with 20 µg/mL RNase A at 37 °C for 60 min, then washed with PBS and finally stained with 20 µg/mL PI in the dark for 30 min. The cellular DNA content for the cell cycle distribution analysis was performed with the system software (BD FACS DIVA software (BD Biosciences, Franklin Lakes, NJ, USA)), plotting at least 10,000 events per sample. Three independent experiments were performed, with two replicates per experiment.

[4] = BALB 3T3 Neutral Red Uptake safety test (cytotoxicity/phototoxicity); type: cell-based, mouse; conditions: mouse, BALB 3T3 clone A31 embryonic fibroblasts, BALB 3T3, NRU, 24 h incubation, n = 6
Procedure: (§3) The Neutral Red Uptake in vitro assay is a colorimetric method for assessing cell viability. This method is based on the ability of living cells to incorporate Neutral Red dye into lysosomes. Mouse embryonic fibroblasts were seeded at 1 × 10^4 cells/100 μL culture medium/well in 96-well cell culture microplates. The cells were incubated for 24 h to allow cell adhesion. The cells were then treated with a solution of the test substances in double-increasing concentrations (from 15 to 4000 μM). The phototoxicity test was performed in parallel on a second 96-well plate, which was irradiated with a solar simulator (LED lamp—Helios-iO (SERIC Ltd., Tokyo, Japan) for 10 min (irradiation dose 0.86 J). After 24 h of incubation, a culture medium containing Neutral Red was added. After 3 h of incubation, the wells were washed with PBS, and a Desorb solution (50% Ethanol, 1% Acetic acid, 49% dH2O) was added. The optical density (OD) was measured by a microplate reader at λ = 540 nm. The percentage of cytotoxicity was calculated according to the following formula:Cytotoxicity (%) = (1 − (OD540 (sample)/OD540 (negative control))) × 100 Phototoxicity is expressed by Photoirritation factor (PIF), PIF = CC50 − Irr/CC50 +Irr* * Irradiation

[5] = tested on: mouse embryonic fibroblasts BALB 3T3 clone A31; assay: as above; type: cell-based; conditions: PIF = CC50 −Irr/CC50 +Irr; PIF < 2 not phototoxic, 2 < PIF < 5 probable phototoxicity, PIF > 5 phototoxic
Procedure: as §3

human melanoma SH-4 = assay: Antiproliferative activity, MTT dye reduction assay, SH-4; type: cell-based; conditions: for IC50: melanoma SH-4, MTT, 72 h, n = 6, read-out: Mean IC50 ± SD, SH-4; for SI (Selective index): SI = IC50 (non-tumor cell line HaCaT)/IC50 (tumor cell line SH-4)
Procedure: as §1, §2

[6] = irradiated with solar simulator 10 min (0.86 J), read-out: Mean CC50 ± SD, +Irr
[7] = without irradiation, read-out: Mean CC50 ± SD, −Irr

SMILES	melting point	Early apoptosis (Annexin V+/PI−, Q3) (SH-4 cells [1])	Late apoptosis (Annexin V+/PI+, Q2) (SH-4 cells [1])	Live (viable cells, Annexin V−/PI−, Q4) (SH-4 cells [1])	Necrosis (Annexin V−/PI+, Q1) (SH-4 cells [1])	population fraction of total apoptotic cells (SH-4 cells [1])	IC50 ([2]; Homo sapiens)	effect on cell cycle distribution (in words) (SH-4 cells [3])	G2 phase, percentage of cells (SH-4 cells [3])	S phase, percentage of cells (SH-4 cells [3])	G0/G1 phase, percentage of cells (SH-4 cells [3])	CC50 at 24 h [4, 6]	CC50 at 24 h [4, 7]	PIF (Photo Irritation Factor) [5]	IC50 (human melanoma SH-4; Homo sapiens)	SI (Selective index) (human melanoma SH-4)	apoptotic activity (in words) (SH-4 cells [1]; 260 µM, versus Cisplatin 20 µM)	apoptotic potential higher than α-aldehyde derivative 1A (SH-4 cells [1]; 260 µM)	IC50 [2]	IC50 (human melanoma SH-4)
CCOC(=O)c1cc(-c2ccc(Cl)cc2)n(C(Cc2ccccc2)C(=O)N/N=C/c2c(C)[nH]c(C)c2C(=O)OCC)c1C (stereo not drawn) [Compound 1D, Ethyl(E)-5-(4-chlorophenyl)-1-(1-(2-((4-(ethoxycarbonyl)-2,5-dimethyl-1H-pyrrol-3-yl)methylene)hydrazineyl)-1-oxo-3-phenylpropan-2-yl)-2-methyl-1H-pyrrole-3-carboxylate]	> 230 °C	32.5%	6.51%	60.2%	0.78%	39%	11 ± 0.42 µM	induction of S-phase arrest	23.2%	46.4% and 46%	28.3%	3.37 ± 0.13 mM	3.8 ± 0.185 mM	1.13	8.72 ± 0.6 µM	1.26				
CCOC(=O)c1cc(-c2ccc(Cl)cc2)n(C(Cc2ccccc2)C(=O)N/N=C/c2[nH]c(C(=O)OCC)c(C)c2C(=O)OCC)c1C (stereo not drawn) [Compound 1A, Diethyl(E)-5-((2-(2-(5-(4-chlorophenyl)-3-(ethoxycarbonyl)-2-methyl-1H-pyrrol-1-yl)-3-phenylpropanoyl)hydrazineylidene)methyl)-3-methyl-1H-pyrrole-2,4-dicarboxylate]	109 to 112 °C	36.5%	4.78%	58.2%	0.50%		503 ± 31.1 µM	no significant changes in the cell cycle distribution	14.8%	24.5%	59.8%	2.84 ± 0.124 mM	3.14 ± 0.167 mM	1.11	270 ± 13.5 µM	1.87	comparable apoptotic activity with positive control			
CCOC(=O)c1cc(-c2ccc(Cl)cc2)n(C(Cc2ccccc2)C(=O)N/N=C/c2[nH]c(C)c(C(=O)OCC)c2C)c1C (stereo not drawn) [Compound 1B, Ethyl(E)-5-(4-chlorophenyl)-1-(1-(2-((4-(ethoxycarbonyl)-3,5-dimethyl-1H-pyrrol-2-yl)methylene)hydrazineyl)-1-oxo-3-phenylpropan-2-yl)-2-methyl-1H-pyrrole-3-carboxylate]	129 to 132 °C	48.9%	6.1%	44.6%	0.46%		544 ± 26.8 µM	slight increase in the S phase population	13.6%	34%	50.2%	2.27 ± 0.0554 mM	2.18 ± 0.154 mM	0.96	258 ± 16.1 µM	2.11		14%		
CCOC(=O)c1cc(-c2ccc(Cl)cc2)n(C(Cc2ccccc2)C(=O)N/N=C/c2c(C)[nH]c(C(=O)OCC)c2C)c1C (stereo not drawn) [Compound 1C, Ethyl(E)-4-((2-(2-(5-(4-chlorophenyl)-3-(ethoxycarbonyl)-2-methyl-1H-pyrrol-1-yl)-3-phenylpropanoyl)hydrazineylidene)methyl)-3,5-dimethyl-1H-pyrrole-2-carboxylate]	> 230 °C	39%	7.13%	53.4%	0.43%	around 46%	171 ± 4.09 µM	induction of S-phase arrest	24.5%	38.5% and 38%	35%	1.75 ± 0.0317 mM	1.67 ± 0.0415 mM	0.95	44.6 ± 3.51 µM	3.83				
CN(C)CCCN1c2ccccc2Sc2ccc(Cl)cc21 [Chlorpromazine, reference compound]												0.00913 ± 0.00072 mM	0.0658 ± 0.00264 mM	7.21						
N.N.[Cl][Pt][Cl] [Cisplatin, reference compound]		36.4%	2.59%		0.34%				17.7%	61.3%	17.8%								8.64 ± 0.42 µM	22.8 ± 1.47 µM
